Assay [1] concerns the target T1, RET(KD: 658-1114 G810R) (Homo sapiens, UniProt P07949, G810R).
T1 construct: 658-1114; expressed in transfected cells; host or cells: 293T.165 (293T cells, generated in-house)
T1 sequence (P07949 658-1114 G810R): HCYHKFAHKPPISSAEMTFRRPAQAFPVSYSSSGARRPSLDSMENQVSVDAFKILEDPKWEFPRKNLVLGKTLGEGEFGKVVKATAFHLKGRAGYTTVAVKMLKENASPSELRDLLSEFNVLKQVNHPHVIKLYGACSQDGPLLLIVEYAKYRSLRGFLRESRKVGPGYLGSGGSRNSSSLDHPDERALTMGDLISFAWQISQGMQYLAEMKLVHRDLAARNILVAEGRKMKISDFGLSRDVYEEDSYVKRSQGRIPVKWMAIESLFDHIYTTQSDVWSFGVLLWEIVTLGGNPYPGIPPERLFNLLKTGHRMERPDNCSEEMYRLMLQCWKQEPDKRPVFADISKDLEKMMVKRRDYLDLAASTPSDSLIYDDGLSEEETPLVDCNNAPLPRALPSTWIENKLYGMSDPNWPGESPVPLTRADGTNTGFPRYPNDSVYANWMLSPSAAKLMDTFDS
Kind of assay: HiBiT-Degradation, RET G810R degradation assay (Nano-Glo HiBiT Lytic), 293T.165 cells. Format: cell-based. Particulars: for Emax / DC50: 6.0 hours; for Emax: % remaining protein, read-out: 293T.165 RET(KD: 658-1114 G810R) 6.0 hours (Emax); for DC50: read-out: 293T.165 RET(KD: 658-1114 G810R) 6.0 hours (DC50). A digest of the protocol: (§1)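 HEK293T lines stably expressing HiBiT-tagged RET kinase domain (WT: 293T.144; G810R: 293T.165) were treated with degraders for 6 h in duplicate, 11-point half-log series from 10 μM top dose. Lysis with Nano-Glo HiBiT Lytic reagent, luminescence read; DC50 and Emax (% remaining protein) derived from dose-response curves.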

Assay [2] has as its target T2, RET (658-1114) (Homo sapiens, UniProt P07949).
T2 construct: 658-1114; expressed in transfected cells; host or cells: 293T.144 (293T cells, generated in-house)
T2 sequence (P07949 658-1114): T1 sequence (P07949 658-1114 G810R) with R153G
In words: HiBiT-Degradation, RET wild-type degradation assay (Nano-Glo HiBiT Lytic), 293T.144 cells. It is filed as cell-based. Particulars: for DC50 / Emax: 6.0 hours; for DC50: read-out: 293T.144 RET (658-1114) 6.0 hours (DC50); for Emax: read-out: 293T.144 RET (658-1114) 6.0 hours (Emax). Summed up:
as §1

Setting [3] is: half-maximal degradation concentration.

Positions count from the first letter of the chain named. Like-named read-outs stand apart in the source and are kept apart here. Some results are limits rather than exact numbers.

With `CCC1(C(=O)NC(C)C)CCN(c2ccc(-c3nc(-c4cnn(C5CCN(C(=O)CC6(O)CCN(c7ccc(N[C@@H]8CCC(=O)NC8=O)cc7Cl)CC6)CC5)c4)cn4ncc(C#N)c34)cn2)CC1` (single isomer, unassigned) [Compound 11], the Emax in assay [1] is less than 30%. In assay [1] (setting [3]), the DC50 is less than 50 nM. Also, in assay [1] (HiBiT-Degradation), the “293T.165 RET(KD: 658-1114 G810R) 6.0 hours (Emax)” value is recorded as “++++ (< 30% = ++++)”, the “293T.165 RET(KD: 658-1114 G810R) 6.0 hours (IP) [nM]” value was “++++ (< 50 nM = ++++)” and the DC50 is less than 50 nM. Also, in assay [2] (HiBiT-Degradation), the “293T.144 RET (658-1114) 6.0 hours (IP) [nM]” value (from here on “293T.144 RET”) is “++++ (< 50 nM = ++++)”, the DC50 is less than 50 nM and the Emax is less than 30%.
As for `N#Cc1cnn2cc(-c3cnn([C@H]4CC[C@H](N5CCC(c6ccc(NC7CCC(=O)NC7=O)cc6F)CC5)CC4)c3)nc(-c3ccc(N4CCC5(CC4)OCc4cccnc45)nc3)c12` (single isomer, unassigned) [Compound 148, 4-(6-(5H-Spiro[furo[3,4-b]pyridine-7,4′-piperidin]-1′-yl)pyridin-3-yl)-6-(1-((1r, 4r)-4-(4-(4-((2,6-dioxopiperidin-3-yl)amino)-2-fluorophenyl)piperidin-1-yl)cyclohexyl)-1H-pyrazol-4-yl)pyrazolo[1,5-a]pyrazine-3-carbonitrile], the “293T.165 RET(KD: 658-1114 G810R) 6.0 hours (IP) [nM]” value in assay [1] was “++++ (<50 nM = ++++)”. Further, the Emax in assay [1] and in assay [2] (% remaining protein) was less than 30% each time. For the same compound, the DC50 in assay [1] (setting [3]) and in assay [2] (setting [3]) was less than 50 nM in each case. Further, the “293T.144 RET” value in assay [2] is on record as “++++ (<50 nM = ++++)”.
Take `CCC1(C(=O)NC(C)C)CCN(c2ccc(-c3cc(-c4ccc(N5CCC(O)(CCN6CCC(c7ccc(NC8CCC(=O)NC8=O)cc7F)CC6)CC5)cc4)cn4ncc(C#N)c34)cn2)CC1` (centres unmarked) [Compound 39, 1-(5-(3-Cyano-6-(4-(4-(2-(4-(4-((2,6-dioxopiperidin-3-yl)amino)-2-fluorophenyl)piperidin-1-yl)ethyl)-4-hydroxypiperidin-1-yl)phenyl)pyrazolo[1,5-a]pyridin-4-yl)pyridin-2-yl)-4-ethyl-N-isopropylpiperidine-4-carboxamide]: the Emax in assay [1] is less than 30%. Besides, the DC50 in assay [1] (setting [3]) was less than 50 nM. For the same compound, in assay [1] (HiBiT-Degradation), the “293T.165 RET(KD: 658-1114 G810R) 6.0 hours (Emax)” value is “++++ (< 30% = ++++)”, the “293T.165 RET(KD: 658-1114 G810R) 6.0 hours (IP) [nM]” value was “++++ (< 50 nM = ++++)” and the DC50 was less than 50 nM. Besides, in assay [2] (HiBiT-Degradation), the “293T.144 RET” value is reported as “++++ (< 50 nM = ++++)”, the DC50 was less than 50 nM and the Emax is less than 30%.
Consider `COc1ccc(CN2C[C@H]3COC[C@@H](C2)N3c2ccc(-c3nc(-c4cnn([C@H]5CC[C@H](N6CCN(c7ccc(NC8CCC(=O)NC8=O)cc7F)CC6)CC5)c4)cn4ncc(C#N)c34)cn2)cn1` (stereo partly drawn) [Compound 160, 6-[1-[4-[4-[4-[(2,6-dioxo-3-piperidyl)amino]-2-fluoro-phenyl]piperazin-1-yl]cyclohexyl]pyrazol-4-yl]-4-[6-[(1R,5S)-7-[(6-methoxy-3-pyridyl)methyl]-3-oxa-7,9-diazabicyclo[3.3.1]nonan-9-yl]-3-pyridyl]pyrazolo[1,5-a]pyrazine-3-carbonitrile], for which the “293T.165 RET(KD: 658-1114 G810R) 6.0 hours (IP) [nM]” value in assay [1] is given as “++++ (<50 nM = ++++)”. For the same compound, the Emax in assay [1] and in assay [2] (% remaining protein) was less than 30% each time. The DC50 in assay [1] (setting [3]) and in assay [2] (setting [3]) was less than 50 nM in each case. Also, the “293T.144 RET” value in assay [2] was “++++ (<50 nM = ++++)”.
Turning to `N#Cc1cnn2cc(-c3ccc(N4CCN(C(=O)CN5CCC(c6ccc(NC7CCC(=O)NC7=O)cc6)CC5)CC4)cc3)cc(-c3ccc(N4CC5CC(C4)N5Cc4ccccc4)nc3)c12` (centres unmarked) [Compound 22, 4-(6-(6-Benzyl-3,6-diazabicyclo[3.1.1]heptan-3-yl)pyridin-3-yl)-6-(4-(4-(2-(4-(4-((2,6-dioxopiperidin-3-yl)amino)phenyl)piperidin-1-yl)acetyl)piperazin-1-yl)phenyl)pyrazolo[1,5-a]pyridine-3-carbonitrile], the Emax in assay [1] was less than 30%. The DC50 in assay [1] (setting [3]) is less than 100 nM. In addition, in assay [1] (HiBiT-Degradation), the “293T.165 RET(KD: 658-1114 G810R) 6.0 hours (Emax)” value is “++++ (< 30% = ++++)”, the “293T.165 RET(KD: 658-1114 G810R) 6.0 hours (IP) [nM]” value was “++++ (< 50 nM = ++++)” and the DC50 was less than 100 nM. Moreover, in assay [2] (HiBiT-Degradation), the “293T.144 RET” value was “++++ (< 50 nM = ++++)”, the DC50 is less than 50 nM and the Emax was less than 30%.
For the compound `Cn1nc(N2CCC(=O)NC2=O)c2cc(F)c(N3CCN([C@H]4CC[C@@H](n5cc(-c6cn7ncc(C#N)c7c(-c7ccc(N8C[C@H]9COC[C@@H](C8)N9Cc8ccc(=O)[nH]c8)nc7)n6)cn5)CC4)CC3)cc21` (single isomer, unassigned) [Compound 153], in assay [1], the “293T.165 RET(KD: 658-1114 G810R) 6.0 hours (IP) [nM]” value is listed as “++++ (<50 nM = ++++)”. The Emax in assay [1] and in assay [2] (% remaining protein) was less than 30% throughout. Further, the figures for the DC50 in assay [1] (setting [3]) and in assay [2] (setting [3]) were less than 100 nM and less than 50 nM, respectively. In addition, in assay [2], the “293T.144 RET” value is “++++ (<50 nM = ++++)”.
In the case of `N#Cc1cnn2cc(-c3cnn(C4CCN(C(=O)CC5(O)CCN(c6ccc(NC7CCC(=O)NC7=O)cc6F)CC5)CC4)c3)cc(-c3ccc(N4CCC(c5ccc(O)cc5)CC4)nc3)c12` (centres unmarked) [Compound 197, 6-[1-[1-[2-[1-[4-[(2,6-dioxo-3-piperidyl)amino]-2-fluoro-phenyl]-4-hydroxy-4-piperidyl]acetyl]-4-piperidyl]pyrazol-4-yl]-4-[6-[4-(4-hydroxyphenyl)-1-piperidyl]-3-pyridyl]pyrazolo[1,5-a]pyridine-3-carbonitrile], the “293T.165 RET(KD: 658-1114 G810R) 6.0 hours (IP) [nM]” value in assay [1] is on record as “++++ (<50 nM = ++++)”. Also, the Emax in assay [1] and in assay [2] (% remaining protein) was less than 30% in each case. For the same compound, the DC50 in assay [1] (setting [3]) and in assay [2] (setting [3]) was less than 50 nM in each case. Further, in assay [2], the “293T.144 RET” value is recorded as “++++ (<50 nM = ++++)”.
For the compound `Cc1ccnc(C2CCN(c3ccc(-c4nc(-c5cnn(C6CCN(C(=O)CC7(O)CCN(c8ccc(NC9CCC(=O)NC9=O)cc8F)CC7)CC6)c5)cn5ncc(C#N)c45)cn3)CC2)n1` (centres unmarked) [Compound 115, 6-[1-[1-[2-[1-[4-[(2,6-dioxo-3-piperidyl)amino]-2-fluoro-phenyl]-4-hydroxy-4-piperidyl]acetyl]-4-piperidyl]pyrazol-4-yl]-4-[6-[4-(4-methylpyrimidin-2-yl)-1-piperidyl]-3-pyridyl]pyrazolo[1,5-a]pyrazine-3-carbonitrile], the “293T.165 RET(KD: 658-1114 G810R) 6.0 hours (IP) [nM]” value in assay [1] is on record as “++++ (<50 nM = ++++)”. Also, the Emax in assay [1] and in assay [2] (% remaining protein) was less than 30% each time. Besides, the DC50 in assay [1] (setting [3]) and in assay [2] (setting [3]) was less than 50 nM throughout. Also, the “293T.144 RET” value in assay [2] is reported as “++++ (<50 nM = ++++)”.
Turning to `N#Cc1cnn2cc(-c3cnn(C4CCN(C(=O)CN5CCC(c6ccc(NC7CCC(=O)NC7=O)cc6F)CC5)CC4)c3)cc(-c3ccc(N4CC5CCC(C4)N5Cc4ccccn4)nc3)c12` (centres unmarked) [Compound 62, 6-[1-[1-[2-[4-[4-[(2,6-dioxo-3-piperidyl)amino]-2-fluoro-phenyl]-1-piperidyl]acetyl]-4-piperidyl]pyrazol-4-yl]-4-[6-[8-(2-pyridylmethyl)-3,8-diazabicyclo[3.2.1]octan-3-yl]-3-pyridyl]pyrazolo[1,5-a]pyridine-3-carbonitrile], in assay [1], the maximum response (Emax) was less than 50%. The DC50 in assay [1] (setting [3]) was less than 100 nM. Moreover, in assay [1] (HiBiT-Degradation), the “293T.165 RET(KD: 658-1114 G810R) 6.0 hours (Emax)” value is “+++ (<50% = +++)”, the “293T.165 RET(KD: 658-1114 G810R) 6.0 hours (IP) [nM]” value is recorded as “++++ (< 50 nM = ++++)” and the DC50 is less than 100 nM. For the same compound, in assay [2] (HiBiT-Degradation), the “293T.144 RET” value was “++++ (< 50 nM = ++++)”, the DC50 is less than 50 nM and the Emax is less than 30%.

The Emax is the greatest response seen or fitted, relative to the assay's reference. As usually defined, the DC50 is the midpoint of the concentration-degradation curve.

For the origin of these results see patent publication US12661410B2, “Compounds for targeted degradation of RET” (C4 Therapeutics, Inc., priority 2020, dated 2026).
